Legend:
seed proteins = experiment: ABPP labelling of a tomato seed extract with four fluorescent probes in parallel (FIG. 2); assay type: biochemical; conditions: plant seed extract, 2 μM probe, buffers NaOAc pH 5.5 or Tris pH 7.6 with 1 mM DTT
diagnostic marker 4 = experiment: Single seed-ABPP of unprimed and primed tomato seeds with MV151 (FIG. 17); assay type: biochemical; conditions: 4 hours, Tris pH 7.5
From the text: A: Structure of MV151 (see also FIG. 7). This probe consists of a vinylsulfonate (VS) reactive groups, a leucine tripeptide binding group as linker, and a fluorescence bodipy reporter tag (left grey circle) (MV151: Verdoes et al., (2006) Chem. Biol. 13: 1217-1226). B: MV151 was used for detection of a diagnostic marker for primed seeds in tomato. […] Proteins were separated on 14% protein gels and analyzed by scanning for fluorescent proteins (ex 532 nm/em 575 nm) and stained with coomassie. […] This is an Example of successful identification of primed seeds by ABPP of the present invention without need for germination of the seeds.

Structure (SMILES): COc1ccc(C2=[N+]3C(=Cc4c(C)c(CCC(=O)NCCCCCC(=O)NCCCCCC(=O)NCCCCCC(=O)N[C@@H](CC(C)C)C(=O)N[C@@H](CC(C)C)C(=O)N[C@H](/C=C/S(C)(=O)=O)CC(C)C)c(C)n4[B-]3(F)F)C=C2)cc1 [MV151]
- labelling of seed proteins on fluorescence gel (seed proteins): Robust labelling
- seeds in which diagnostic marker 4 is detected (diagnostic marker 4; primed A1 seeds, 14 of 14, 2 μM probe): 100%
- seeds in which diagnostic marker 4 is detected (diagnostic marker 4; unprimed A1 seeds, 4 of 14, 2 μM probe): 36%

— US20140193831A1, “SEED TRAIT PREDICTION BY ACTIVITY-BASED PROTEIN PROFILING” (GAUTIER SEMENCES, priority 2011, published 2014)
